Here are results for 1 compound from US20030228583A1, “Biomarkers of liver response” (priority 2001, published 2003).

This series relates to Liver Response-Associated Features (LRFs) in serum/plasma (blood). The series can be described thus: Proteome analysis (2D electrophoresis, Reference Protocol) of depleted serum/plasma of drug-treated vs control animals: relative abundance of LRFs. From the text:
Samples from animals treated with various drugs at various timepoints and various dose levels can be collected, prepared, and analysed as described herein. […] Using the following procedure, proteins in liver tissue and serum/plasma from 5 control animals and 5 animals having liver response induced through drug treatment were separated by isoelectric focusing followed by SDS-PAGE and analyzed. Samples were taken and analyzed at three different time points designated “early”, “full manifestation” and “late”. Parts 6.1.1 to 6.1.9 (inclusive) of the procedure set forth below are hereby designated as the “Reference Protocol”.
Approximately 200 μl venous blood was collected at the time of necropsy in serum seperation tubes and serum obtained by centrifugation for 3 minutes at 11,000 rpm using a Biofuge A centrifuge. 100 μl of the resulting serum was added to 15 μl protease inhibitor, vortexed and frozen at −80° C.
A protein assay (Pierce (Rockford, Ill.) BCA Cat #23225) was performed on each serum/plasma sample as received. Prior to protein separation, each sample was processed for selective depletion of certain proteins, in order to enhance and simplify protein separation and facilitate analysis by removing proteins that may interfere with or limit analysis of proteins of interest. See International Patent Application No. PCT/GB99/01742, filed Jun. 1, 1999, which is incorporated by reference in its entirety, with particular reference to pages 3 and 6.
This was done by circulating the following solutions sequentially through the columns: (1) Dulbecco's Phosphate Buffered Saline (Gibco BRL Cat. No. 14190-094); (2) concentrated antibody solution; (3) 200 mM sodium carbonate buffer, pH 8.35; (4) cross-linking solution (200 mM sodium carbonate buffer, pH 8.35, 20 mM dimethylpimelimidate); and (5) 500 mM ethanolamine, 500 mM NaCl. A third (un-derivatised) protein G Hi-Trap column was then attached to the lower end of the tandem column assembly.
The chromatographic procedure was automated using an Akta Fast Protein Liquid Chromatography (FPLC) System such that a series of up to seven runs could be performed sequentially. […] Fractions (typically 3 ml per tube) were collected of unbound material (“Flowthrough fractions”) that eluted through the column during column loading and washing stages and of bound proteins (“Bound/Eluted fractions”) that were eluted by step elution with Immunopure Gentle Ag/Ab Elution Buffer (Pierce Cat. No. 21013). The eluate containing unbound material was collected in fractions which were pooled, desalted/concentrated by centrifugal ultrafiltration and stored to await further analysis by 2D PAGE.
A volume of depleted serum/plasma containing approximately 300 μg of total protein was aliquoted and an equal volume of 10% (w/v) SDS (Fluka 71729), 2.3% (w/v) dithiothreitol (BDH 443852A) was added. The sample was heated at 95° C. for 5 mins, and then allowed to cool to 20° C . 125 μl of the following buffer was then added to the sample:
This mixture was vortexed, and centrifuged at 13000 rpm for 5 mins at 15° C., and the supernatant was analyzed by isoelectric focusing.
Isoelectric focusing (IEF), was performed using the Immobiline® DryStrip Kit (Pharmacia BioTech), following the procedure described in the manufacturer's instructions, see Instructions for Immobilineg DryStrip Kit, Pharmacia, #18-1038-63, Edition AB (incorporated herein by reference in its entirety). Immobilized pH Gradient (IPG) strips (18 cm, pH 3-10 non-linear strips; Pharmacia Cat. #17-1235-01) were rehydrated overnight at 20° C. in a solution of 8M urea, 2% (w/v) CHAPS, 10 mM DTT, 2% (v/v) Resolytes 3.5-10, as described in the Immobiline DryStrip Users Manual. For IEF, 50 μl of supernatant (prepared as above) was loaded onto a strip, with the cup-loading units being placed at the basic end of the strip.

Structures are written as SMILES.

For `CCC1(c2ccccc2)C(=O)NC(=O)NC1=O` [phenobarbital], the “Fold Change LRF-235” value (Early, P 0.0075) worked out at 8.26 fold. In addition, the “Fold Change LRF-223” value (Early, P 0.0117) amounted to 1.34 fold. The “Fold Change LRF-158” value (Early, P 0.0119) is recorded as −1.33 fold. Besides, the “Fold Change LRF-217” value (Early, P 0.0122) is listed as 2.16 fold. In addition, the “Fold Change LRF-182” value (Early, P 0.0178) was −2.81 fold. The “Fold Change LRF-179” value (Early, P 0.0212) was −1.37 fold. Moreover, the “Fold Change LRF-224” value (Early, P 0.0216) turned out to be 1.30 fold. Also, the “Fold Change LRF-369” value (Late, P 0.0097) is 2.53 fold. Moreover, the “Fold Change LRF-371” value (Late, P 0.0109) is reported as 3.02 fold. Besides, the “Fold Change LRF-257” value (Middle, P 0.0122) is recorded as −1.42 fold. In addition, where the note is “Middle, P 0.0212”, the “Fold Change LRF-259” value is recorded as −1.34 fold. The “Fold Change LRF-294” value (Middle, P 0.0216) was determined as 1.57 fold.
